Results from patent publication US20250230147A1, “LACTAMS AS CBL-B INHIBITORS” (Genentech, Inc., priority 2021, published 2025).
pIC50: −log10 of the molar value.

Key:
[1] = target: Cbl-b (Homo sapiens (Human), UniProt Q13191); test: Cbl-b LCK Ub TR-FRET assay (Cbl-b Lck HTRF); assay type: biochemical
In short: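 TR-FRET (340 nm excitation, 615/665 nm emission) read after adding HA-ubiquitin–UBE2D2 thioester, anti-HA-D2 and streptavidin-Eu. Beforehand, compounds incubated 60 min with biotinylated Cbl-b, then 90 min with His-LCK and ATP (1 mM in 2× mix); IC50 from 10 concentrations, DMSO high and no-LCK low controls.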

[2] = target: c-Cbl (Homo sapiens (Human), UniProt P22681); test: C-Cbl LCK Ub TR-FRET assay (c-cbl Lck HTRF); assay type: biochemical; conditions: for (fold-selectivity): C-cbl Lck HTRF IC50 relative to Cbl-b Lck HTRF IC50
In short: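 Detection reagents added, brief spin, 20 min RT. IC50 fit normalized to no-LCK (low) and DMSO (high) controls.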

Sequence of Cbl-b (Q13191 40-426): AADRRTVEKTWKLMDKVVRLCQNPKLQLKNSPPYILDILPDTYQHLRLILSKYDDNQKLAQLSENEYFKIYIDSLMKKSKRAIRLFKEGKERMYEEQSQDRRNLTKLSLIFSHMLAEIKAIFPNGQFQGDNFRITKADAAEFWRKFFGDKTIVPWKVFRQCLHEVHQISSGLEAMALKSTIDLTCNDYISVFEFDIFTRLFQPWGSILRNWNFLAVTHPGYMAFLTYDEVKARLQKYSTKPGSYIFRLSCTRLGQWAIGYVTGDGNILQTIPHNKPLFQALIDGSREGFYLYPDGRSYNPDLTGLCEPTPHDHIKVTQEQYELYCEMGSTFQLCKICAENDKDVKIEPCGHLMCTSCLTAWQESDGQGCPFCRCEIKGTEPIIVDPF
Sequence of c-Cbl (P22681 47-435): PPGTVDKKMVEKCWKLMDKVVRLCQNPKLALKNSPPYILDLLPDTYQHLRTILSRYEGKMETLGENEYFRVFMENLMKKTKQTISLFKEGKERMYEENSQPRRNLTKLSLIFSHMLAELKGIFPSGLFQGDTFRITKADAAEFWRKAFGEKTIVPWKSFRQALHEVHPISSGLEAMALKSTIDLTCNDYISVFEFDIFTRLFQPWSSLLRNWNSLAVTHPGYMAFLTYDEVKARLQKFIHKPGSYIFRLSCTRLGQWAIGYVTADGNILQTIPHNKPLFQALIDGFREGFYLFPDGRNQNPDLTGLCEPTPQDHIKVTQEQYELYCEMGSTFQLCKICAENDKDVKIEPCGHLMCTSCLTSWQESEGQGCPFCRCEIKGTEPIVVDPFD

Structure (SMILES)	pIC50 [1]	pIC50 [2]	(fold-selectivity) [2]
Cn1cnnc1CC1(c2cccc(N3Cc4c(cc(CNCC5CC5)cc4C(F)(F)F)C3=O)c2)CC(F)(F)C1 [Compound 334, 6-(((cyclopropylmethyl)amino)methyl)-2-(3-(3,3-difluoro-1-((4-methyl-4H-1,2,4-triazol-3-yl)methyl)cyclobutyl)phenyl)-4-(trifluoromethyl)isoindolin-1-one]	7.96	8.09	(0.72) x
Cn1cnnc1CC1(c2cccc(N3Cc4c(cc([C@@H](N)C5CC5)cc4C(F)(F)F)C3=O)c2)CC(F)(F)C1 [Compound 453, (S)-6-(amino(cyclopropyl)methyl)-2-(3-(3,3-difluoro-1-((4-methyl-4H-1,2,4-triazol-3-yl)methyl)cyclobutyl)phenyl)-4-(trifluoromethyl)isoindolin-1-one]	7.85	7.74	(1.4x)
CCOc1cc(C2(Cc3nncn3C)CCC2)cc(N2Cc3c(cc(CNC4(C)CCC4)cc3C(F)(F)F)C2=O)n1 [Compound 359, 2-(6-ethoxy-4-(1-((4-methyl-4H-1,2,4-triazol-3-yl)methyl)cyclobutyl)pyridin-2-yl)-6-(((1-methylcyclobutyl)amino)methyl)-4-(trifluoromethyl)isoindolin-1-one]	7.96	8.28	(0.71x)
Cn1cnnc1[C@@H](F)C1(c2cccc(N3Cc4c(cc(CNC5(C)CCC5)cc4C(F)(F)F)C3=O)c2)CC(F)(F)C1 [Compound 465, (S)-2-(3-(3,3-difluoro-1-(fluoro(4-methyl-4H-1,2,4-triazol-3-yl)methyl)cyclobutyl)phenyl)-6-(((1-methylcyclobutyl)amino)methyl)-4-(trifluoromethyl)isoindolin-1-one]	7.85	7.89	(0.90x)
Cn1cc(-c2cc(C3(Cc4nncn4C)CCC3)cc(N3Cc4c(cc(CNC5(C)CCC5)cc4C(F)(F)F)C3=O)n2)cn1 [Compound 327, 2-(6-(1-methyl-1H-pyrazol-4-yl)-4-(1-((4-methyl-4H-1,2,4-triazol-3-yl)methyl)cyclobutyl)pyridin-2-yl)-6-(((1-methylcyclobutyl)amino)methyl)-4-(trifluoromethyl)isoindolin-1-one]	7.92	7.92	(1.0x)
Cn1cnnc1CC1(c2cc(NC3CCCC3)cc(N3Cc4c(cc(CNC5(C)CCC5)cc4C(F)(F)F)C3=O)c2)CC(F)(F)C1 [Compound 477, 2-(3-(cyclopentylamino)-5-(3,3-difluoro-1-((4-methyl-4H-1,2,4-triazol-3-yl)methyl)cyclobutyl)phenyl)-6-(((1-methylcyclobutyl)amino)methyl)-4-(trifluoromethyl)isoindolin-1-one]	7.44	6.96	(3.4x)
CC[C@H]1CCC[C@@H](c2cc3c(c(C(F)(F)F)c2)CN(c2cccc(C4(Cc5nncn5C)CC(F)(F)C4)c2)C3=O)N1 (single isomer, unassigned) [Compound 273]	7.29	7.11	(1.5x)
CCN1CCN(Cc2cc3c(c(C(F)(F)F)c2)CN(c2cccc(C4([C@H](F)c5nncn5C)CC(F)(F)C4)c2)C3=O)[C@@H](C(C)C)C1 [Compound 461, 2-(3-(3,3-difluoro-1-((S)-fluoro(4-methyl-4H-1,2,4-triazol-3-yl)methyl)cyclobutyl)phenyl)-6-(((S)-4-ethyl-2-isopropylpiperazin-1-yl)methyl)-4-(trifluoromethyl)isoindolin-1-one]	8.00	8.09	(0.82x)
CC(C)Nc1cc(N2Cc3c(cc(CN4CCN(C)C[C@@H]4C(C)C)cc3C(F)(F)F)C2=O)cc(C2(Cc3nncn3C)CCC2)c1 [Compound 408, (S)-6-((2-isopropyl-4-methylpiperazin-1-yl)methyl)-2-(3-(isopropylamino)-5-(1-((4-methyl-4H-1,2,4-triazol-3-yl)methyl)cyclobutyl)phenyl)-4-(trifluoromethyl)isoindolin-1-one]	7.89	8.04	(0.68x)
C[C@@H]1COCCN1c1cc(C2(Cc3nncn3C)COC2)cc(N2Cc3c(cccc3C(F)(F)F)C2=O)n1 [Compound 490, (R)-2-(4-(3-((4-methyl-4H-1,2,4-triazol-3-yl)methyl)oxetan-3-yl)-6-(3-methylmorpholino)pyridin-2-yl)-4-(trifluoromethyl)isoindolin-1-one]	5.48	5.46	(1.0x)
CC(C)[C@H]1CN(C)CCN1Cc1cc2c(c(C(F)(F)F)c1)CN(c1cccc(C3([C@@H](F)c4n[nH]cc4C(F)(F)F)COC3)c1)C2=O [Compound 377, 2-(3-(3-((R)-fluoro(4-(trifluoromethyl)-1H-pyrazol-3-yl)methyl)oxetan-3-yl)phenyl)-6-(((S)-2-isopropyl-4-methylpiperazin-1-yl)methyl)-4-(trifluoromethyl)isoindolin-1-one]	5.00	4.70	(2.0x)
CN1CCN(Cc2cc3c(c(C(F)(F)F)c2)CN(c2cccc(C4(Cc5nncn5C)CC(F)(F)C4)c2)C3=O)[C@@H](C2CC2)C1 [Compound 402, (S)-6-((2-cyclopropyl-4-methylpiperazin-1-yl)methyl)-2-(3-(3,3-difluoro-1-((4-methyl-4H-1,2,4-triazol-3-yl)methyl)cyclobutyl)phenyl)-4-(trifluoromethyl)isoindolin-1-one]	7.41	7.34	(1.2x)
Cc1cnnn1CC1(c2cccc(N3Cc4c(cc(CNC5(C)CCC5)cc4C(F)(F)F)C3=O)c2)COC1 [Compound 243, 2-(3-(3-((5-methyl-1H-1,2,3-triazol-1-yl)methyl)oxetan-3-yl)-phenyl)-6-(((1-methylcyclobutyl)amino)methyl)-4-(trifluoromethyl)isoindolin-1-one]	7.54	7.33	(1.6x)
CC(C)[C@H]1CN(C)CCN1Cc1cc2c(c(C(F)(F)F)c1)CN(c1cccc(C3(Cc4nncn4C)COC3)c1)C2=O [Compound 407, (S)-6-((2-isopropyl-4-methylpiperazin-1-yl)methyl)-2-(3-(3-((4-methyl-4H-1,2,4-triazol-3-yl)methyl)oxetan-3-yl)phenyl)-4-(trifluoromethyl)isoindolin-1-one]	8.15	8.24	(0.80x)

The next lines start with the values.

pIC50 [1]	pIC50 [2]	(fold-selectivity) [2]	Structure (SMILES)
6.96	6.54	2.6x	Cn1cnnc1[C@H](F)C1(c2cccc(N3Cc4c(cc(CN5CC[C@@H](F)C5)cc4C(F)(F)F)C3=O)c2)COC1 [Compound 80, 2-(3-(3-((R)-fluoro(4-methyl-4H-1,2,4-triazol-3-yl)methyl)oxetan-3-yl)phenyl)-6-(((R)-3-fluoropyrrolidin-1-yl)methyl)-4-(trifluoromethyl)isoindolin-1-one]
7.80	7.96	(0.68x)	CC(C)[C@H]1CN(C)CCN1Cc1cc2c(c(C(F)(F)F)c1)CN(c1cccc(C3([C@H](F)c4nncn4C(F)F)COC3)c1)C2=O [Compound 268, 2-(3-(3-((S)-(4-(difluoromethyl)-4H-1,2,4-triazol-3-yl)fluoromethyl)oxetan-3-yl)phenyl)-6-(((S)-2-isopropyl-4-methylpiperazin-1-yl)methyl)-4-(trifluoromethyl)isoindolin-1-one]
6.64	6.33	2.1x	CO[C@H]1CCN(Cc2cc3c(c(C(F)(F)F)c2)CN(c2cccc(C4([C@H](F)c5nncn5C)COC4)c2)C3=O)C1 [Compound 132, 2-(3-(3-((S)-fluoro(4-methyl-4H-1,2,4-triazol-3-yl)methyl)oxetan-3-yl)phenyl)-6-(((S)-3-methoxypyrrolidin-1-yl)methyl)-4-(trifluoromethyl)isoindolin-1-one]
6.64	6.19	2.8x	Cn1cnnc1[C@H](F)C1(c2cccc(N3Cc4c(cc(CN5CC6(CCO6)C5)cc4C(F)(F)F)C3=O)c2)COC1 [Compound 139, (R)-6-(1-oxa-6-azaspiro[3.3]heptan-6-ylmethyl)-2-(3-(3-(fluoro(4-methyl-4H-1,2,4-triazol-3-yl)methyl)oxetan-3-yl)phenyl)-4-(trifluoromethyl)isoindolin-1-one]
7.21	6.92	1.9x	Cn1cnnc1[C@H](F)C1(c2cccc(N3Cc4c(cc(CN5CC6CC6C5)cc4C(F)(F)F)C3=O)c2)COC1 (stereo partly drawn) [Compound 84, 6-((3-azabicyclo[3.1.0]hexan-3-yl)methyl)-2-(3-(3-((R)-fluoro(4-methyl-4H-1,2,4-triazol-3-yl)methyl)oxetan-3-yl)phenyl)-4-(trifluoromethyl)isoindolin-1-one]
7.20	7.08	1.3x	Cn1cnnc1[C@H](F)C1(c2cccc(N3Cc4c(cc(CN5CC(O)(C6CC6)C5)cc4C(F)(F)F)C3=O)c2)COC1 [Compound 173, (R)-6-((3-cyclopropyl-3-hydroxyazetidin-1-yl)methyl)-2-(3-(3-(fluoro(4-methyl-4H-1,2,4-triazol-3-yl)methyl)oxetan-3-yl)phenyl)-4-(trifluoromethyl)isoindolin-1-one]
7.27	6.96	2.1x	COC1(C)CN(Cc2cc3c(c(C(F)(F)F)c2)CN(c2cccc(C4([C@@H](F)c5nncn5C)COC4)c2)C3=O)C1 [Compound 179, (R)-2-(3-(3-(fluoro(4-methyl-4H-1,2,4-triazol-3-yl)methyl)oxetan-3-yl)phenyl)-6-((3-methoxy-3-methylazetidin-1-yl)methyl)-4-(trifluoromethyl)isoindolin-1-one]
